Measured values published in ChEMBL document CHEMBL5390322, “Discovery of 5-Azaquinoxaline Derivatives as Potent and Orally Bioavailable Allosteric SHP2 Inhibitors” (ACS Med Chem Lett, 2023).
Converted amounts (≈) assume the structure as drawn.

Experiments:
[1] = biological target: Mitogen-activated protein kinase; ERK1/ERK2 (Homo sapiens, UniProt P27361+P28482); test: Inhibition of ERK1/2 phosphorylation at Thr202/Tyr204 residues in human KYSE520 cells incubated for 1 hrs by Western blot analysis; format: cell-based
[2] = biological target: T1, Tyrosine-protein phosphatase non-receptor type 11 (Homo sapiens, UniProt Q06124); test: Allosteric inhibition of recombinant full length 6His-tagged SHP2 (2 to 527 residues) (unknown origin) expressed in Escherichia coli using DiFMUP as substrate incubated for 15 mins by microplate reader analysis
T1 sequence (Q06124 whole entry): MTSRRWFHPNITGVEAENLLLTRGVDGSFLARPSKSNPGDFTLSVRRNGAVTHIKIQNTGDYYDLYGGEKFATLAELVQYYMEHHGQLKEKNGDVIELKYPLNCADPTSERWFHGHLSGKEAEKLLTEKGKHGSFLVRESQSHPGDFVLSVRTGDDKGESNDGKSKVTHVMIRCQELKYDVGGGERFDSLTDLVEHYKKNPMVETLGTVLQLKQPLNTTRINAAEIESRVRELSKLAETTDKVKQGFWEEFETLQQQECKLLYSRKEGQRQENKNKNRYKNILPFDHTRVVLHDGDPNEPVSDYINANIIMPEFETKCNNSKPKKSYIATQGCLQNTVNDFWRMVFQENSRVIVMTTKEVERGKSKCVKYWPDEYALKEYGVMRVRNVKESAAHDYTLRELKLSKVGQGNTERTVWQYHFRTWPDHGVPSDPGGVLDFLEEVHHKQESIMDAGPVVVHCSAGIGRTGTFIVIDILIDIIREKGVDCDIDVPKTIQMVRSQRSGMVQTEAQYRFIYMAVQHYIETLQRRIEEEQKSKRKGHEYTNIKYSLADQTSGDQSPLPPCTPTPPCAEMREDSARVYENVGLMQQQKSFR

[3] = Metabolic stability in mouse liver microsome assessed as intrinsic clearance at […] preincubated for 5 mins followed by NADPH addition and measured after 20 mins by LC-MS analysis; format: ADME; conditions: liver microsomes, dose 2.5 µM, time 25 min, read-out: CLH
[4] = Metabolic stability in human hepatocyte assessed as intrinsic clearance incubated for 1 to 2 hrs by LC-MS analysis; format: ADME, cell-based; conditions: hepatocytes, time 1-2 hrs, read-out: CLH
[5] = Permeability of compound from apical to basolateral side in LLC-PK1 cells incubated for 2 hrs by LC-MS/MS analysis; format: ADME, cell-based, Sus scrofa; conditions: pig, read-out: permeability
[6] = Metabolic stability in human liver microsome assessed as intrinsic clearance at […] preincubated for 5 mins followed by NADPH addition and measured after 20 mins by LC-MS analysis; format: ADME; conditions: liver microsomes, dose 2.5 µM, time 25 min, read-out: CLH
[7] = Metabolic stability in mouse hepatocyte assessed as intrinsic clearance incubated for 1 to 2 hrs by LC-MS analysis; format: ADME, cell-based; conditions: hepatocytes, time 1-2 hrs, read-out: CLH
[8] = Solubility of the compound in FaSSIF at 1 mg/ml incubated for 24 hrs by LC-MS/MS analysis; format: physicochemical

Structure (SMILES) | IC50 [1] [nM] | IC50 [2] [nM] | CLint scaled at […] [3] [mL/min/kg] | CLint scaled at 10000 µM [4] [mL/min/kg] | Papp A→B at 2 h [5] [×10⁻⁶ cm/s] | CLint scaled at […] [6] [mL/min/kg] | CLint scaled [7] [mL/min/kg] | solubility at 24 h [8] [µg/mL]
CC1(N)CCN(c2cnc3c(Sc4cccc(Cl)c4Cl)cnn3c2)CC1 | > 20000 | 634 | – | – | – | – | – | –
CC1(N)CCN(c2cnc3nc(-c4cccc5ccccc45)ccc3n2)CC1 | 510 | – | 22 | 2 | 13 | 3 | 8 | –
Nc1nccc(Sc2ccc3nc(N4CCC5(CC4)Cc4ncc(F)cc4[C@H]5N)cnc3n2)c1Cl | 6 | – | 47 | 12 | 9 | 13 | 26 | –
CC1(N)CCN(c2cnc3nc(Sc4ccnc(N)c4Cl)ccc3n2)CC1 | 58 | – | 30 | 2 | 10 | 3 | 8 | –
Nc1nccc(Sc2ccc3nc(N4CCC5(CC4)C[C@@H](O)C[C@H]5N)cnc3n2)c1Cl | 142 | – | 10 | 8 | 1 | – | 31 | –
CC1(CN)CCN(c2cnc3nc(Sc4ccnc(N)c4Cl)ccc3n2)CC1 | 68 | – | 14 | 2 | 10 | 5 | 16 | 909 (≈ 2190 µM)
CC1(N)CCN(c2cnc3nc(Sc4cccc(Cl)c4Cl)ccc3n2)CC1 | 1068 | 47 | – | – | – | – | – | –
COc1ccc2c(c1)[C@@H](N)C1(CCN(c3cnc4nc(Sc5ccnc(N)c5Cl)ccc4n3)CC1)C2 | 29 | 47 | 21 | 11 | – | 6 | 33 | –
CC1(N)CCN(c2cnc3nc(-c4cccc(Cl)c4Cl)ccc3n2)CC1 | 471 | – | 25 | 2 | – | 3 | 8 | –
CC1(N)CCN(c2cnc3c(cnn3-c3cccc(Cl)c3Cl)n2)CC1 | 1951 | 1930 | – | – | – | – | – | –
COc1nccc(Sc2ccc3nc(N4CCC(C)(N)CC4)cnc3n2)c1Cl | 660 | 355 | 20 | 2 | 12 | 6 | 7 | –
CC1(N)CCN(c2ccnc3c(Sc4cccc(Cl)c4Cl)cnn23)CC1 | > 20000 | 530 | – | – | – | – | – | –
Cc1ccc2c(n1)CC1(CCN(c3cnc4nc(Sc5ccnc(N)c5Cl)ccc4n3)CC1)[C@@H]2N | 17 | – | 41 | 15 | 10 | 14 | 35 | –
COc1cccc(Sc2ccc3nc(N4CCC(C)(N)CC4)cnc3n2)c1Cl | 786 | 104 | 51 | 9 | – | 9 | 45 | –
CC1(N)CCN(c2cnc3nc(Oc4cccc(Cl)c4Cl)ccc3n2)CC1 | 767 | – | 18 | 2 | 11 | 4 | 10 | –
CC1(N)CCN(c2cnc3nc(Sc4cccn5nccc45)ccc3n2)CC1 | 1388 | – | – | – | 14 | – | – | –
Nc1nccc(Sc2ccc3nc(N4CCC5(CC4)Cc4cc(Cl)ccc4[C@H]5N)cnc3n2)c1Cl | 78 | 35 | – | – | – | – | – | 24 (≈ 45.8 µM)
Nc1nccc(Sc2ccc3nc(N4C[C@H]5C[C@@H](C4)[C@H]5N)cnc3n2)c1Cl | 227 | – | 28 | 5 | 14 | 4 | 23 | –
Nc1nccc(Sc2ccc3nc(N4[C@H]5CC[C@H]4CC(N)C5)cnc3n2)c1Cl (stereo not given in full) | 28 | – | 18 | 2 | 3 | 3 | 17 | 1000 (≈ 2420 µM)
CC1(N)CCN(c2cnc3cc(-c4cccc(Cl)c4Cl)ccc3n2)CC1 | > 20000 | – | – | – | – | – | – | –
CC1(N)CCN(c2ncc(Sc3cccc(Cl)c3Cl)n3nccc23)CC1 | 2785 | 208 | – | – | – | – | – | –

Further lines, results first:

IC50 [1] [nM] | IC50 [2] [nM] | CLint scaled at […] [3] [mL/min/kg] | CLint scaled at 10000 µM [4] [mL/min/kg] | Papp A→B at 2 h [5] [×10⁻⁶ cm/s] | CLint scaled at […] [6] [mL/min/kg] | CLint scaled [7] [mL/min/kg] | solubility at 24 h [8] [µg/mL] | Structure (SMILES)
10 | – | 17 | 12 | 6 | 5 | 37 | – | Nc1nccc(Sc2ccc3nc(N4CCC5(CC4)Cc4cc(F)ccc4[C@H]5N)cnc3n2)c1Cl
991 | – | 23 | 7 | 9 | 9 | 12 | – | CC1(N)CCN(c2cnc3nc(Sc4cccc(C#N)c4Cl)ccc3n2)CC1
17 | – | 25 | 10 | – | 6 | 33 | – | Cc1ccc2c(c1)[C@@H](N)C1(CCN(c3cnc4nc(Sc5ccnc(N)c5Cl)ccc4n3)CC1)C2
254 | – | – | – | – | – | – | – | CC1(N)CCN(c2cnc(-c3cccc(Cl)c3Cl)c(N)n2)CC1
> 20000 | 3690 | – | – | – | – | – | – | CC1(N)CCN(c2ccc(Sc3cccc(Cl)c3Cl)n3nccc23)CC1
202 | – | 20 | 5 | 12 | 3 | 16 | 1000 (≈ 2400 µM) | CNC1(C)CCN(c2cnc3nc(Sc4ccnc(N)c4Cl)ccc3n2)CC1
8 | – | 29 | 12 | 6 | 7 | 30 | – | COc1cnc2c(c1)[C@@H](N)C1(CCN(c3cnc4nc(Sc5ccnc(N)c5Cl)ccc4n3)CC1)C2
84 | 102 | 19 | 3 | 1 | 4 | 8 | – | Nc1nccc(Sc2ccc3nc(N4CCC[C@H](N)CC4)cnc3n2)c1Cl
1184 | 344 | – | – | 19 | – | – | – | CC1(N)CCN(c2cnc3nc(-c4cccc(F)c4Cl)ccc3n2)CC1
8 | – | 19 | 10 | 1 | 8 | 34 | 60 (≈ 122 µM) | Nc1nccc(Sc2ccc3nc(N4CCC5(CC4)Cc4ccccc4[C@H]5N)cnc3n2)c1Cl
